Laboratory results reported in US12241902B2, “Probes for detection of copper” (The Regents of the University of California, priority 2019, dated 2025).

Tests used:
[1] = Ratiometric fluorescence response (F526/F576) to Cu(I) in aqueous buffer
Description: (§1) UV-vis absorption and emission measurements. FCP-1 stock solution in DMSO (5 mM) was prepared, aliquoted and stored at […]. For each spectroscopic measurement, a fresh aliquot was diluted to 500 μM by DMSO and further diluted with PBS containing 2 mM GSH/PEG-400 mixture (3:2, v/v) to prepare the sensing solution with 5 μM of FCP-1. The sensing solution was pre-incubated in a water bath at 37° C., and then [Cu(CH3CN)](PF6) in MeCN or other metal ions in H2O was added. The solution mixture was kept at 37° C. and taken out for UV-vis absorption or emission spectroscopic measurements in quartz cuvette at predetermined time intervals. Emission spectra were corrected using coumarin 153 as secondary emission standard (4). Photoluminescence quantum yield (PLQY) was determined using fluorescein in 0.1 M NaOH solution (0.95; λex=496 nm). FRET efficiency from the fluorescein moiety to rhodamine moiety of FCP-1 was estimated by [1−(PLQY of FCP-1/PLQY of FL-TPA)].
The ratiometric fluorescence change of FCP-1 at 526 and 576 nm (F526/F576) was rapid and reached saturation after ca. 30 min in the presence of a two-fold excess of Cu(I) (10 μM).

[2] = Metal ion selectivity of the ratiometric fluorescence change
Description: (A) Changes in corrected emission spectra of FCP-1 (5 μM) in aqueous buffer solution. […] (B) Corrected emission spectra of FCP-1 measured at various concentrations. […] (D) Changes in F526/F576 ratio of FCP-1 (5 μM) towards various biologically relevant metal ions, as well as cobalt(II)-containing vitamin B12. Black bars represent the ratiometric emission response observed upon addition of competing metal ions (1 mM for Na^+, K^+, Mg^2+ and Ca^2+, and 10 μM for all the other d-block metal ions as well vitamin B12) after 15 min. Red bars represent the ratiometric emission response upon subsequent addition of 10 μM of Cu(I) after 15 min. (E) Emission spectra and (F) F526/F576 emission ratio of FCP-1 (5 μM) with addition of Cu(II) (10 μM), Cu(II) (10 μM)+GSH (2 mM), or Cu(I) (10 μM)+GSH (2 mM) after 15 min. All spectra were acquired in aqueous buffer (PBS with 2 mM GSH and 40 vol % PEG-400) with λex=458 nm.
as §1
This oxidation state-specificity is important for the applications of FCP-1 in imaging dynamic changes in intracellular labile Cu(I) pools under redox stress and oncogenic transformation.

[3] = test system: labile Cu(I) pools in HeLa cells; assay: Ratiometric confocal fluorescence imaging of labile Cu(I) in HeLa cells under redox stress; assay type: cell-based, Human; settings: FCP-1 5 μM
Description: Confocal fluorescence microscopy images of HeLa cells pretreated with (A) solvent control, CuCl2 (200 or 300 μM), or BCS (100 μM) in complete medium for 18 h, or (B) solvent control, ascorbate (1 mM), or BSO (1 mM) in complete medium for 4 h. The cells were then washed with PBS, incubated with FCP-1 (5 μM) in DPBS for 45 min and imaged with λex=458 nm. The bar charts show average cellular ratiometric FCP-1 emission, Fgreen/Forange, determined from experiments performed in triplicate. (C) Total cellular ^63Cu levels were determined by ICP-MS experiments (with normalization of different cell numbers by total cellular ^31P level). […]
Confocal fluorescence microscopy imaging. For confocal fluorescence imaging experiments of HEK293T, MEF Ctr1^+/+ and Ctr1^−/− and HeLa cells, the cells were plated on 8-well Lab Tek borosilicate chambered coverglass slides (Nunc), and allowed to grow to ca. 60% confluency before performing the cell imaging experiments. […] For quantification, a threshold value was set as background and the average intensity of the whole image was measured by ImageJ. […]
In view of the oxidation state-specificity of FCP-1 toward Cu(I), the impact of cellular redox status on labile Cu(I) pools was examined First, the ability of FCP-1 to detect changes in labile Cu(I) levels in HeLa cells with CuCl2 and BCS treatments was evaluated (FIG. 16A). […]

[4] = FCP-1 5 μM, Cu(I) 10 μM, over time, λex 458 nm

CC[N+](CC)=c1ccc2c(-c3ccccc3C(=O)O)c3ccc(N4CCN(Cc5cccc(CN(Cc6ccccn6)Cc6cccc(COc7ccc8c(-c9ccccc9C(=O)OC)c9ccc(=O)cc-9oc8c7)n6)n5)CC4)cc3oc-2c1 [FCP-1]
F526/F576 ratio with Cu(I) at different GSH concentrations ([1]; FCP-1 5 μM, Cu(I) 10 μM, 15 min, PBS with 40 vol % PEG-400): higher F526/F576 ratios at lower GSH concentrations | fluorescein emission at 526 nm upon addition of Cu(I) [1, 4]: increase in fluorescein emission at 526 nm | rhodamine fluorescence at 576 nm upon addition of Cu(I) [1, 4]: drop in rhodamine fluorescence at 576 nm | total fluorescence at higher probe concentrations ([1]; aqueous buffer, λex 458 nm (FIG. 8)): less fluorescent at higher concentrations | time to saturation of ratiometric fluorescence change F526/F576 ([1]; two-fold excess of Cu(I) (10 μM)): ca. 30 min | change in ratiometric signal with cobalamin (vitamin B12) ([2]; 10 μM cobalamin): no significant changes in ratiometric signal | selectivity of ratiometric fluorescence change ([2]; 1 mM Na+, K+, Mg2+, Ca2+, 10 μM d-block metal ions, 15 min): selective toward Cu(I) over other biologically relevant metal ions | change of fluorescence with free Co(II) ([2]; Co(II) 10 μM): altered FCP-1 fluorescence modestly | detection of Cu(I) in competitive experiments ([2]; solutions containing other biologically relevant metal ions, then 10 μM Cu(I)): ability of FCP-1 to detect Cu(I) | Fgreen/Forange ratio in BSO-treated cells compared to control ([3]; BSO 1 mM 4 h): higher | Fgreen/Forange ratio in ascorbate-treated cells compared to control ([3]; ascorbate 1 mM 4 h): statistically significant increase
